Laboratory results as given in ChEMBL document CHEMBL1155673, “Yanucamides A and B, two new depsipeptides from an assemblage of the marine cyanobacteria Lyngbya majuscula and Schizothrix species” (J Nat Prod, 2000).

System: Artemia salina
Assay: Toxicity against Artemia salina after 24 hrs
Format: organism-based
Settings: in vivo

**Q.** With `C#CCCCC1OC(=O)CCNC(=O)[C@@H](Cc2ccccc2)N(C)C(=O)[C@H](C(C)C)OC(=O)[C@H]([C@H](C)CC)NC(=O)C1(C)C` (some centres not stated) [YANUCAMIDE B] as the compound, how does the LD50 read?
**A.** 5 ppm

**Q.** For `C#CCCCC1OC(=O)CCNC(=O)[C@@H](Cc2ccccc2)N(C)C(=O)[C@H](C(C)C)OC(=O)[C@H](C(C)C)NC(=O)C1(C)C` (some centres not stated) [YANUCAMIDE A], which LD50 is on record?
**A.** 5 ppm
